Reference: patent publication US8395037B2, “Pharmaceutical compositions for treating/preventing motor organ diseases” (Mitsubishi Corporation, priority 2005, dated 2013)

Tests used:
proteoglycan = assay: Proteoglycan production in cultured chondrocytes (western blotting); assay type: cell-based, human; details: chondrocytes treated with cartilage degenerating factors
Protocol: Chondrocytes prepared according to the above method and chondrocytes of the control groups were collected with a cell scraper, and centrifuged to remove the supernatant. Then, 0.5% Triton X-100 aqueous solution was added thereto, and ultrasonic disintegration was performed on ice for one minute, to obtain a protein extract. The concentrations of the respective protein solutions were measured, and each sample was placed on 5% to 10% gradient SDS-polyacrylamide electrophoresis gel at 100 ng/lane, and subjected to electrophoresis.
Proteins in the gel were transferred onto a polyvinylidene difluoride membrane (manufactured by Pharmacia Co.) using a semidry blotting apparatus (manufactured by Amersham). The membrane was blocked with 5% skim milk (manufactured by Morinaga Co.), and then treated with 5 μg/ml of anti-proteoglycan monoclonal antibodies (manufactured by Chemicon Co.) at room temperature for one hour. The membrane was washed with PBS containing 0.01% Tween-20 (hereunder, abbreviated as “TPBS”), and then treated with 5,000-fold-diluted peroxidase-labeled anti-mouse IgG antibodies (manufactured by Amersham) as secondary antibodies, at room temperature for one hour. […]

MMP-3 = MMP-3 concentration in synovial fluid of osteoarthritis model knee joints (ELISA); assay type: in vivo, rabbit; details: various concentrations, sequential measurement, versus control knees
Protocol: Sequential biochemical examinations of blood and synovial fluid were also performed (pre-administration and fourth- and eighth-week post-administration of water-solubilized fullerene). The observed biochemical examination items were (A) hepatic function (GOT and GPT), renal function (urea nitrogen and creatinine), and electrolytes (Na, K, and Cl), (B) extracellular matrix-degrading enzyme production ability (MMP-1, 3, and 13), and (C) cartilage matrix-synthesizing ability (proteoglycan). The items of (A) were measured by commercially available testing equipments and items of (B) and (C) were measured by ELISA method.

[1] = test system: osteoarthritis patient-derived chondrocytes; assay: Cytotoxicity test (XTT method) on chondrocytes; assay type: cell-based, human; details: for Cell survival rate (%): relative to control (medium alone) = 100%
Protocol: Chondrocytes isolated from human articular cartilage tissues were used for cultured cells. After obtaining informed consent, cartilage tissues were collected from surgically-removed tissues from eight osteoarthritis patients. The collected tissues were sliced and then treated in a liquid low-glucose Dulbecco's modified Eagle's medium (DMEM, manufactured by Gibco Co.) containing 1.5 mg/ml collagenase B at 37° C. overnight, to isolate chondrocytes for culture. The cells were normally cultured in a culture flask (culture area: 25 cm^2), and in a polystyrene culture dish (diameter: 6 cm) for use in the experiments. The cell culture was performed using a DMEM medium added with inactivated fetal bovine serum (FBS, manufactured by TRACE Co.) at 10% volume of the medium, and also 2 mM L-glutamine, 25 mM HEPES, and penicillin and streptomycin at 100 units/ml, in either a CO2 incubator (normoxic condition) which was set at 5% CO2+95% air, or a low oxygen chamber (hypoxic condition) which was set at 1% O2+5% CO2+94% N2, at 37° C. under saturated humidity.
Influence of hydroxylated C60 fullerene on the survival rate of chondrocytes was evaluated by a cytotoxicity test (XTT method). Hydroxylated C60 fullerene (manufactured by Frontier Carbon Co.) was dissolved in polyethylene glycol to prepare a 10 mM stock, which was then stored in a dark place at −20° C. The concentration of hydroxylated C60 fullerene for the test was 1.0 μM, 10.0 μM, and 100.0 μM.
50 μl each of chondrocytes in the logarithmic growth phase were added into a 96-well microplate at the concentration of 5.0×10^5 cells/ml, and incubated in either a CO2 incubator (normoxic condition) or a low oxygen chamber (hypoxic condition) for 24 hours. Hydroxylated C60 fullerene was added into the 96-well microplate at each target concentration described above (final volume: 100 μl), and the cells were incubated for 48 hours or 96 hours. Then, the medium was replaced to remove hydroxylated C60 fullerene, and the cells were incubated for another 12 hours. To stain surviving cells, 50 μl XTT (2,3bis(2-methoxy-4-nitro-5-sulfophenyl)-5-[(phenylamino)carbonyl]-2H-tetrazolium hydroxide, inner salt) reagent was added to each well, and the cells were incubated for four hours. Immediately thereafter, the absorbance at 450 nm was measured with a plate reader and the cell survival rates were analyzed. The results are shown as survival rates. The survival rate of the control group in a medium alone without hydroxylated C60 fullerene was assumed to be 100%, and the survival rate of the hydroxylated C60 fullerene-administered groups is expressed as relative values against the control group.

cultured chondrocytes = assay: Chondrocyte-proliferation ability under cartilage degenerating factors; assay type: cell-based; details: cultured chondrocytes treated with IL-1β and H2O2

With hydroxylated C60 fullerene as the substance, how does the “Production of proteoglycan (western blotting)” value (proteoglycan) read?
The value was “the inhibition against the production of cartilage matrix, proteoglycan, due to the cartilage degenerating factors was inhibited”.

And the “Production of proteoglycan (western blotting)” value (proteoglycan; listed as fullerene)?
The value was “restored”.

What about the “MMP-3 concentration in synovial fluid” value (MMP-3) of the same substance?
The value was “No remarkable difference”.

And the “Cell survival rate (%)” value ([1]; 1.0 μM, 48 hour incubation)?
Its value is 98.5 ± 6.5%.

And the “Cell survival rate (%)” value ([1]; 1.0 μM, 96 hour incubation)?
Its value is 99.6 ± 3.8%.

And the “Cell survival rate (%)” value ([1]; 10.0 μM, 48 hour incubation)?
Its value is 101.3 ± 5.8%.

And the “Cell survival rate (%)” value ([1]; 10.0 μM, 96 hour incubation)?
The value was 98.2 ± 2.6%.

And the “Cell survival rate (%)” value ([1]; 100.0 μM, 48 hour incubation)?
The value was 99.5 ± 4.2%.

And the “Cell survival rate (%)” value ([1]; 100.0 μM, 96 hour incubation)?
The value was 103.4 ± 2.2%.

What about the Toxicity to chondrocytes ([1]; 1.0-100.0 μM, 48 or 96 hours) of the same substance?
Its Toxicity to chondrocytes is “not to be toxic to chondrocytes”.

What about the “Decrease of chondrocyte-proliferation ability” value (cultured chondrocytes) of the same substance?
Its value is “inhibited decrease of chondrocyte-proliferation ability”.
